Source: patent US11331369B2, “Endoparasitic depsipeptides” (Zoetis Services LLC, priority 2017, dated 2022)

System: microfilariae of Dirofilaria immitis
Assay: Dirofilaria immitis, Microfilaria (DiMF) In vitro Assay
Type: cell-based
Details: 72 h, read-out: DiMF Minimum Effective Dose (MED), approximately 72 hours incubation, microfilariae assessed for survival or paralysis

Row | SMILES | minimal effective concentration
1 | CCOc1cc(C)nn1Cc1ccc(C[C@H]2OC(=O)[C@H](CC(C)C)N(C)C(=O)[C@@H](C)OC(=O)[C@H](CC(C)C)N(C)C(=O)[C@@H](Cc3ccc(Cn4nc(C)cc4OCC)cc3)OC(=O)[C@H](CC(C)C)N(C)C(=O)[C@@H](C)OC(=O)[C@H](CC(C)C)N(C)C2=O)cc1 [Example 1b-163, (3S,6R,9S,12R,15S,18R,21S,24R)-6,18-bis(4-((5-ethoxy-3-methyl-1H-pyrazol-1-yl)methyl)benzyl)-3,9,15,21-tetraisobutyl-4,10,12,16,22,24-hexamethyl-1,7,13,19-tetraoxa-4,10,16,22-tetraazacyclotetracosan-2,5,8,11,14,17,20,23-octaone] | 0.01 to 0.1 µM
2 | CCOc1cc(CC)nn1Cc1ccc(C[C@H]2OC(=O)[C@H](CC(C)C)N(C)C(=O)[C@@H](C)OC(=O)[C@H](CC(C)C)N(C)C(=O)[C@@H](Cc3ccc(Cn4nc(CC)cc4OCC)cc3)OC(=O)[C@H](CC(C)C)N(C)C(=O)[C@@H](C)OC(=O)[C@H](CC(C)C)N(C)C2=O)cc1 [Example 1b-169, (3S,6R,9S,12R,15S,18R,21S,24R)-6,18-bis(4-((5-ethoxy-3-ethyl-1H-pyrazol-1-yl)methyl)benzyl)-3,9,15,21-tetraisobutyl-4,10,12,16,22,24-hexamethyl-1,7,13,19-tetraoxa-4,10,16,22-tetraazacyclotetracosan-2,5,8,11,14,17,20,23-octaone] | 0.01 to 0.1 µM
3 | CCOc1cc(C2CC2)nn1Cc1ccc(C[C@H]2OC(=O)[C@H](CC(C)C)N(C)C(=O)[C@@H](C)OC(=O)[C@H](CC(C)C)N(C)C(=O)[C@@H](Cc3ccc(Cn4nc(C5CC5)cc4OCC)cc3)OC(=O)[C@H](CC(C)C)N(C)C(=O)[C@@H](C)OC(=O)[C@H](CC(C)C)N(C)C2=O)cc1 [Example 1b-170, (3S,6R,9S,12R,15S,18R,21S,24R)-6,18-bis(4-((3-cyclopropyl-5-ethoxy-1H-pyrazol-1-yl)methyl)benzyl)-3,9,15,21-tetraisobutyl-4,10,12,16,22,24-hexamethyl-1,7,13,19-tetraoxa-4,10,16,22-tetraazacyclotetracosan-2,5,8,11,14,17,20,23-octaone] | 0.01 to 0.1 µM
4 | CC(C)C[C@H]1C(=O)O[C@H](Cc2ccc(Cn3cc(N4CCCCC4)cn3)cc2)C(=O)N(C)[C@@H](CC(C)C)C(=O)O[C@H](C)C(=O)N(C)[C@@H](CC(C)C)C(=O)O[C@H](Cc2ccc(Cn3cc(N4CCCCC4)cn3)cc2)C(=O)N(C)[C@@H](CC(C)C)C(=O)O[C@H](C)C(=O)N1C [Example 1b-183, (3S,6R,9S,12R,15S,18R,21S,24R)-3,9,15,21-tetraisobutyl-4,6,10,16,18,22-hexamethyl-12,24-bis(4-((4-(piperidin-1-yl)-1H-pyrazol-1-yl)methyl)benzyl)-1,7,13,19-tetraoxa-4,10,16,22-tetraazacyclotetracosan-2,5,8,11,14,17,20,23-octaone] | 0.01 to 0.1 µM
5 | CC(C)C[C@H]1C(=O)O[C@H](Cc2ccc(Cn3cc(OCCN)cn3)cc2)C(=O)N(C)[C@@H](CC(C)C)C(=O)O[C@H](C)C(=O)N(C)[C@@H](CC(C)C)C(=O)O[C@H](Cc2ccc(Cn3cc(OCCN)cn3)cc2)C(=O)N(C)[C@@H](CC(C)C)C(=O)O[C@H](C)C(=O)N1C [Example 1b-185, (3S,6R,9S,12R,15S,18R,21S,24R)-6,18-bis(4-((4-(2-aminoethoxy)-1H-pyrazol-1-yl)methyl)benzyl)-3,9,15,21-tetraisobutyl-4,10,12,16,22,24-hexamethyl-1,7,13,19-tetraoxa-4,10,16,22-tetraazacyclotetracosan-2,5,8,11,14,17,20,23-octaone] | 0.01 to 0.1 µM
6 | Cc1nn(Cc2ccc(C[C@H]3OC(=O)[C@H](CC(C)C)N(C)C(=O)[C@@H](C)OC(=O)[C@H](CC(C)C)N(C)C(=O)[C@@H](Cc4ccc(Cn5nc(C)c(OC(C)C)c5C)cc4)OC(=O)[C@H](CC(C)C)N(C)C(=O)[C@@H](C)OC(=O)[C@H](CC(C)C)N(C)C3=O)cc2)c(C)c1OC(C)C [Example 1b-188, (3S,6R,9S,12R,15S,18R,21S,24R)-3,9,15,21-tetraisobutyl-6,18-bis(4-((4-isopropoxy-3,5-dimethyl-1H-pyrazol-1-yl)methyl)benzyl)-4,10,12,16,22,24-hexamethyl-1,7,13,19-tetraoxa-4,10,16,22-tetraazacyclotetracosan-2,5,8,11,14,17,20,23-octaone] | 0.01 to 0.1 µM
7 | CCOc1c(C)nn(Cc2ccc(C[C@H]3OC(=O)[C@H](CC(C)C)N(C)C(=O)[C@@H](C)OC(=O)[C@H](CC(C)C)N(C)C(=O)[C@@H](Cc4ccc(Cn5nc(C)c(OCC)c5C)cc4)OC(=O)[C@H](CC(C)C)N(C)C(=O)[C@@H](C)OC(=O)[C@H](CC(C)C)N(C)C3=O)cc2)c1C [Example 1b-191, (3S,6R,9S,12R,15S,18R,21S,24R)-6,18-bis(4-((4-ethoxy-3,5-dimethyl-1H-pyrazol-1-yl)methyl)benzyl)-3,9,15,21-tetraisobutyl-4,10,12,16,22,24-hexamethyl-1,7,13,19-tetraoxa-4,10,16,22-tetraazacyclotetracosan-2,5,8,11,14,17,20,23-octaone] | 0.01 to 0.1 µM
8 | CC(C)C[C@H]1C(=O)O[C@H](Cc2ccc(Cn3ccc(-c4cnccn4)n3)cc2)C(=O)N(C)[C@@H](CC(C)C)C(=O)O[C@H](C)C(=O)N(C)[C@@H](CC(C)C)C(=O)O[C@H](Cc2ccc(Cn3ccc(-c4cnccn4)n3)cc2)C(=O)N(C)[C@@H](CC(C)C)C(=O)O[C@H](C)C(=O)N1C [Example 1b-195, (3S,6R,9S,12R,15S,18R,21S,24R)-3,9,15,21-tetraisobutyl-4,6,10,16,18,22-hexamethyl-12,24-bis[[4-[(3-pyrazin-2-ylpyrazol-1-yl)methyl]phenyl]methyl]-1,7,13,19-tetraoxa-4,10,16,22-tetrazacyclotetracosane-2,5,8,11,14,17,20,23-octaone] | 0.01 to 0.1 µM
9 | CCOc1cn(Cc2ccc(C[C@H]3OC(=O)[C@H](CC(C)C)N(C)C(=O)[C@@H](C)OC(=O)[C@H](CC(C)C)N(C)C(=O)[C@@H](Cc4ccc(Cn5cc(OCC)c(C)n5)cc4)OC(=O)[C@H](CC(C)C)N(C)C(=O)[C@@H](C)OC(=O)[C@H](CC(C)C)N(C)C3=O)cc2)nc1C [Example 1b-198, (3S,6R,9S,12R,15S,18R,21S,24R)-6,18-bis[[4-[(4-ethoxy-3-methyl-pyrazol-1-yl)methyl]phenyl]methyl]-3,9,15,21-tetraisobutyl-4,10,12,16,22,24-hexamethyl-1,7,13,19-tetraoxa-4,10,16,22-tetrazacyclotetracosane-2,5,8,11,14,17,20,23-octaone] | 0.01 to 0.1 µM
10 | Cc1nn(Cc2ccc(C[C@H]3OC(=O)[C@H](CC(C)C)N(C)C(=O)[C@@H](C)OC(=O)[C@H](CC(C)C)N(C)C(=O)[C@@H](Cc4ccc(Cn5cc(OC(C)C)c(C)n5)cc4)OC(=O)[C@H](CC(C)C)N(C)C(=O)[C@@H](C)OC(=O)[C@H](CC(C)C)N(C)C3=O)cc2)cc1OC(C)C [Example 1b-199, (3S,6R,9S,12R,15S,18R,21S,24R)-3,9,15,21-tetraisobutyl-6,18-bis[[4-[(4-isopropoxy-3-methyl-pyrazol-1-yl)methyl]phenyl]methyl]-4,10,12,16,22,24-hexamethyl-1,7,13,19-tetraoxa-4,10,16,22-tetrazacyclotetracosane-2,5,8,11,14,17,20,23-octaone] | 0.01 to 0.1 µM
11 | CC(C)C[C@H]1C(=O)O[C@H](Cc2ccc(Cn3nccc3C3(N)CC3)cc2)C(=O)N(C)[C@@H](CC(C)C)C(=O)O[C@H](C)C(=O)N(C)[C@@H](CC(C)C)C(=O)O[C@H](Cc2ccc(Cn3nccc3C3(N)CC3)cc2)C(=O)N(C)[C@@H](CC(C)C)C(=O)O[C@H](C)C(=O)N1C [Example 1b-218, (3S,6R,9S,12R,15S,18R,21S,24R)-6,18-bis(4-((5-(1-aminocyclopropyl)-1H-pyrazol-1-yl)methyl)benzyl)-3,9,15,21-tetraisobutyl-4,10,12,16,22,24-hexamethyl-1,7,13,19-tetraoxa-4,10,16,22-tetraazacyclotetracosan-2,5,8,11,14,17,20,23-octaone] | 0.01 to 0.1 µM
12 | CC(C)C[C@H]1C(=O)O[C@H](Cc2ccc(Cn3cc(-c4ccccc4)cn3)cc2)C(=O)N(C)[C@@H](CC(C)C)C(=O)O[C@H](C)C(=O)N(C)[C@@H](CC(C)C)C(=O)O[C@H](Cc2ccccc2)C(=O)N(C)[C@@H](CC(C)C)C(=O)O[C@H](C)C(=O)N1C [Example 2-3, (3S,6R,9S,12R,15S,18R,21S,24R)-6-benzyl-3,9,15,21-tetraisobutyl-4,10,12,16,22,24-hexamethyl-18-[[4-[(4-phenylpyrazol-1-yl)methyl]phenyl]methyl]-1,7,13,19-tetraoxa-4,10,16,22-tetrazacyclotetracosane-2,5,8,11,14,17,20,23-octaone] | 0.01 to 0.1 µM
13 | CC(C)C[C@H]1C(=O)O[C@H](Cc2ccc(Cn3cc(-c4ccc(F)cc4)cn3)cc2)C(=O)N(C)[C@@H](CC(C)C)C(=O)O[C@H](C)C(=O)N(C)[C@@H](CC(C)C)C(=O)O[C@H](Cc2ccccc2)C(=O)N(C)[C@@H](CC(C)C)C(=O)O[C@H](C)C(=O)N1C [Example 2-5, (3S,6R,9S,12R,15S,18R,21S,24R)-6-benzyl-18-[[4-[[4-(4-fluorophenyl)pyrazol-1-yl]methyl]phenyl]methyl]-3,9,15,21-tetraisobutyl-4,10,12,16,22,24-hexamethyl-1,7,13,19-tetraoxa-4,10,16,22-tetrazacyclotetracosane-2,5,8,11,14,17,20,23-octaone] | 0.01 to 0.1 µM
14 | CC(C)C[C@H]1C(=O)O[C@H](Cc2ccc(Cn3cc(C(C)(C)C)cn3)cc2)C(=O)N(C)[C@@H](CC(C)C)C(=O)O[C@H](C)C(=O)N(C)[C@@H](CC(C)C)C(=O)O[C@H](Cc2ccccc2)C(=O)N(C)[C@@H](CC(C)C)C(=O)O[C@H](C)C(=O)N1C [Example 2-8, (3S,6R,9S,12R,15S,18R,21S,24R)-6-benzyl-18-[[4-[(4-tert-butylpyrazol-1-yl)methyl]phenyl]methyl]-3,9,15,21-tetraisobutyl-4,10,12,16,22,24-hexamethyl-1,7,13,19-tetraoxa-4,10,16,22-tetrazacyclotetracosane-2,5,8,11,14,17,20,23-octaone] | 0.01 to 0.1 µM
